Common to all, as to test: NCI tumour cell line growth inhibition, 48 h
The test system of experiment [1] is HCC-2998 colon.
Experiment [2] concerns TK-10 renal.
In experiment [3] the test system is SW-620 colon.
Experiment [4] deals with M14 melanoma.
In experiment [5] the test system is UACC-257 melanoma.
Experiment [6] has as its system OVCAR-8 ovarian.
Experiment [7] relates to SF-295 CNS.
Experiment [8] has as its system SNB-19 CNS.
In experiment [9] the test system is IGROV1 ovarian.
For experiment [10], the system named is 786-0 renal.
For experiment [11], the system named is RXF 393 renal.
Experiment [12] concerns OVCAR-5 ovarian.
For experiment [13], the system named is UACC-62 melanoma.
Experiment [14] deals with NCI-H23 lung.
Experiment [15] deals with SK-MEL-5 melanoma.
The test system of experiment [16] is KM12 colon.
Experiment [17] deals with HS 578T breast.

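Growth conditions: 96-well plates. Treatment: test compound, 48 hours, 5 concentrations. Analysis: linear interpolation between bracketing concentrations; unreached endpoints set to highest concentration. At the TGI there is no net growth.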

On to `CC(=O)O[C@@]12CO[C@@H]1C[C@@H](O)[C@@]1(C)C(=O)[C@H](O)C3=C(C)[C@@H](OC(=O)[C@H](O)[C@@H](NC(=O)c4ccccc4)c4ccccc4)C[C@@](O)([C@@H](OC(=O)c4ccccc4)C12)C3(C)C` (some centres undefined), for which the TGI is 0.0705 µM in experiment [1]; greater than 72.5 µM in [2]; greater than 100 µM in [3]; greater than 100 µM in [4]; greater than 100 µM in experiment [5]; greater than 100 µM in experiment [6]. For the same compound, the TGI in experiment [7] is 8.52 µM; in experiment [8], greater than 100 µM; in experiment [9], greater than 100 µM; in experiment [10], greater than 100 µM; in experiment [11] it was 35.4 µM.
In the case of `CCNC12CCC(C1)C(C)(C)C2=O` (centres undefined), the TGI in [1], in experiment [2], in experiment [3], in experiment [4], in [5] and in experiment [12] was greater than 100 µM each time. The TGI in experiment [6], in [13], in experiment [7], in [14], in experiment [8] and in [9] was greater than 100 µM throughout. The TGI in experiment [15], in experiment [10], in [11] and in experiment [16] was greater than 100 µM throughout.
Turning to `CCN(CC)Cc1ccc(C(=S)Nc2ccc(C)cc2)s1`, the TGI was found to be 16.7 µM in [17]; 25.6 µM in [1]; 45.3 µM in [3]; 28.9 µM in [4]; 24.1 µM in [5]; 29.5 µM in experiment [12]. The TGI in [6] is 35.3 µM; in [13], 28.1 µM; in experiment [7], 28.3 µM; in experiment [14], 26.5 µM; in experiment [8], 34.7 µM; in [9], 26.2 µM. Further, the TGI in experiment [15] worked out at 26.5 µM; in [10], 29.1 µM; in [16] it was 31 µM.
Take `CCCCNC(=O)C1C2CCC(O2)C1C(=O)O` (centres undefined): the TGI in experiment [1] was 46.6 µM; in experiment [2], 42.5 µM; in experiment [3] it was 10.6 µM; in [4] it was 29.5 µM; in experiment [5] it was 45.7 µM; in [12], greater than 100 µM. Also, the TGI was 43.3 µM in [6]; 43.4 µM in experiment [13]; 74.7 µM in experiment [7]; greater than 100 µM in experiment [14]; 58.7 µM in [8]; greater than 100 µM in experiment [9]. In addition, the TGI in experiment [15] is 45.8 µM; in experiment [10], 31.5 µM; in experiment [11], 8.44 µM; in experiment [16], greater than 100 µM.
Consider `CCCCCCCCCC(=O)OCC1OC(n2cc(F)c(=O)[nH]c2=O)C(NC(=O)OCc2ccccc2)C(OC(=O)CCCCCCCCC)C1O` (centres undefined), for which the TGI in experiment [1] was greater than 100 µM; in experiment [2], greater than 100 µM; in experiment [3], greater than 100 µM; in [4], greater than 100 µM; in [5] it was greater than 100 µM; in experiment [6], 80.1 µM. For the same compound, the TGI in experiment [13] was greater than 100 µM; in experiment [7], greater than 100 µM; in [14], 62 µM; in experiment [8], greater than 100 µM; in experiment [9], greater than 100 µM; in [15] it was 41.5 µM. For the same compound, the TGI in [10] was 36.1 µM; in [11] it was 44 µM; in experiment [16], greater than 100 µM.
As to `C#CCN(N=O)C(=O)NCCCCC(NC(C)=O)C(=O)NCc1ccccc1` (centres undefined), the TGI in experiment [1], in experiment [2], in experiment [3], in experiment [4], in experiment [5] and in experiment [12] was greater than 100 µM throughout. Also, the TGI in experiment [6], in experiment [13], in experiment [7], in experiment [14], in experiment [8] and in experiment [9] was greater than 100 µM throughout. Besides, the TGI in experiment [15], in experiment [10], in experiment [11] and in experiment [16] was greater than 100 µM in each case.
With `O/N=C1/CC2(N3CCOCC3)C3CC/C(=N\O)C2CC1(Cc1ccccc1)C3` (centres undefined), the TGI in [1], in experiment [3], in experiment [4], in experiment [5], in experiment [12] and in experiment [6] was greater than 100 µM throughout. The TGI in experiment [13], in [7], in experiment [14], in experiment [8], in experiment [9] and in experiment [15] was greater than 100 µM throughout. In addition, the TGI in [10], in experiment [11] and in [16] was greater than 100 µM throughout.
Consider `COc1ccc(/C=C2\CCC(CCN(C)C)(C3=CCCC3)C2=O)cc1Br` (centres undefined), for which the TGI in experiment [1] stood at 4.71 µM; in [2], 20 µM; in [3], 20.3 µM; in experiment [4] it was 3.34 µM; in experiment [5], 5.5 µM; in [12] it was 27.1 µM. Moreover, the TGI turned out to be 21.9 µM in experiment [6]; 13.7 µM in [7]; 29 µM in experiment [14]; 22.1 µM in experiment [8]; 14.7 µM in [9]; 3.15 µM in experiment [15]. The TGI in experiment [10] came out at 14.3 µM; in [11], 6.99 µM; in [16], 14.9 µM.
Consider `Cc1ccc(C(=O)/C=C/c2cccc([N+](=O)[O-])c2)cc1`, for which the TGI in [1] was greater than 92 µM; in experiment [2] it was greater than 100 µM; in experiment [3] it was 43.7 µM; in experiment [4], greater than 100 µM; in experiment [5] it was greater than 100 µM; in [6], greater than 100 µM. The TGI in experiment [13], in experiment [7], in [14], in experiment [8], in [9] and in experiment [15] was greater than 100 µM in each case. Moreover, the values for the TGI in experiment [10], in experiment [11] and in experiment [16] were greater than 62.9 µM, greater than 74.8 µM and greater than 62.1 µM, respectively.

Source of the values: PubChem BioAssay (NCI).
